{"source": "patent US4603142A", "about": "“Cholesterol lowering method of use” (Wisconsin Alumni Research Foundation, priority 1984, dated 1986)", "origin": "cited, not measured here", "details": "compared with tocotrienols; cited from earlier work", "data": [{"substance": "Vitamin E", "values": [{"measurement": "Lowering of cholesterol", "result": "does not cause a similar lowering of cholesterol"}]}]}
